According to patent US20150307938A1, “METHOD TO IDENTIFY A NOVEL CLASS OF IMMUNOLOGIC ADJUVANTS” (Lancell, L.L.C., priority 2011, published 2015):

Tested on: skin
Assay: Affymetrix microarray of skin, DBP-4 hr and analogs vs. untreated; gene selection by log-2 fold change, Wilcoxon, Kendall tau (Tables 8, 9)
Assay type: in vivo, mouse
Settings: for Kendall: Kendall tau, expression vs. outcome

`CCCCOC(=O)c1ccccc1C(=O)OCCCC` [DBP, dibutylphthalate] was tested, and the Wilcoxon (gene #557 Il10ra NM_008348_at, DBP-4 hr vs. untreated) was “No”, the Kendall (gene #557 Il10ra NM_008348_at) was “Yes” and the Wilcoxon (gene #558 Il7 NM_008371_at, DBP-4 hr vs. untreated) was “No”. The Kendall (gene #558 Il7 NM_008371_at) was “Yes”, the Wilcoxon (gene #559 Kif3a NM_008443_at, DBP-4 hr vs. untreated) was “No” and the Kendall (gene #559 Kif3a NM_008443_at) was “Yes”. The Wilcoxon (gene #560 Lmo2 NM_008505_at, DBP-4 hr vs. untreated) was “No”, the Kendall (gene #560 Lmo2 NM_008505_at) was “Yes” and the Wilcoxon (gene #561 Mcl1 NM_008562_at, DBP-4 hr vs. untreated) was “No”. The Kendall (gene #561 Mcl1 NM_008562_at) was “Yes”, the Wilcoxon (gene #562 Meox2 NM_008584_at, DBP-4 hr vs. untreated) was “No” and the Kendall (gene #562 Meox2 NM_008584_at) was “Yes”. The Wilcoxon (gene #563 Mtf1 NM_008636_at, DBP-4 hr vs. untreated) was “No”, the Kendall (gene #563 Mtf1 NM_008636_at) was “Yes” and the Wilcoxon (gene #564 Mut NM_008650_at, DBP-4 hr vs. untreated) was “No”. For the same compound, the Kendall (gene #564 Mut NM_008650_at) was “Yes”, the Wilcoxon (gene #565 Ppp1r15a NM_008654_at, DBP-4 hr vs. untreated) was “No” and the Kendall (gene #565 Ppp1r15a NM_008654_at) was “Yes”. The Wilcoxon (gene #566 Ncf4 NM_008677_at, DBP-4 hr vs. untreated) was “No”, the Kendall (gene #566 Ncf4 NM_008677_at) was “Yes” and the Wilcoxon (gene #567 Nos3 NM_008713_at, DBP-4 hr vs. untreated) was “No”. The Kendall (gene #567 Nos3 NM_008713_at) was “Yes”, the Wilcoxon (gene #568 Pigf NM_008838_at, DBP-4 hr vs. untreated) was “No” and the Kendall (gene #568 Pigf NM_008838_at) was “Yes”. The Wilcoxon (gene #569 Map2k3 NM_008928_at, DBP-4 hr vs. untreated) was “No”, the Kendall (gene #569 Map2k3 NM_008928_at) was “Yes” and the Wilcoxon (gene #570 Rad50 NM_009012_at, DBP-4 hr vs. untreated) was “No”. For the same compound, the Kendall (gene #570 Rad50 NM_009012_at) was “Yes”, the Wilcoxon (gene #571 Ralgds NM_009058_at, DBP-4 hr vs. untreated) was “No” and the Kendall (gene #571 Ralgds NM_009058_at) was “Yes”. For the same compound, the Wilcoxon (gene #572 Hltf NM_009210_at, DBP-4 hr vs. untreated) was “No”, the Kendall (gene #572 Hltf NM_009210_at) was “Yes” and the Wilcoxon (gene #573 Serpina3n NM_009252_at, DBP-4 hr vs. untreated) was “No”. For the same compound, the Kendall (gene #573 Serpina3n NM_009252_at) was “Yes”, the Wilcoxon (gene #574 Tnfaip1 NM_009395_at, DBP-4 hr vs. untreated) was “No” and the Kendall (gene #574 Tnfaip1 NM_009395_at) was “Yes”. For the same compound, the Wilcoxon (gene #575 Tuba4a NM_009447_at, DBP-4 hr vs. untreated) was “No”, the Kendall (gene #575 Tuba4a NM_009447_at) was “Yes” and the Wilcoxon (gene #576 Zfp101 NM_009542_at, DBP-4 hr vs. untreated) was “No”. For the same compound, the Kendall (gene #576 Zfp101 NM_009542_at) was “Yes”, the Wilcoxon (gene #577 Parp2 NM_009632_at, DBP-4 hr vs. untreated) was “No” and the Kendall (gene #577 Parp2 NM_009632_at) was “Yes”. The Wilcoxon (gene #578 Aldh2 NM_009656_at, DBP-4 hr vs. untreated) was “No”, the Kendall (gene #578 Aldh2 NM_009656_at) was “Yes” and the Wilcoxon (gene #579 Cebpb NM_009883_at, DBP-4 hr vs. untreated) was “No”. For the same compound, the Kendall (gene #579 Cebpb NM_009883_at) was “Yes”, the Wilcoxon (gene #580 Bcar1 NM_009954_at, DBP-4 hr vs. untreated) was “No” and the Kendall (gene #580 Bcar1 NM_009954_at) was “Yes”. The Wilcoxon (gene #581 Eci1 NM_010023_at, DBP-4 hr vs. untreated) was “No”, the Kendall (gene #581 Eci1 NM_010023_at) was “Yes” and the Wilcoxon (gene #582 Ddt NM_010027_at, DBP-4 hr vs. untreated) was “No”. The Kendall (gene #582 Ddt NM_010027_at) was “Yes”, the Wilcoxon (gene #583 Egr2 NM_010118_at, DBP-4 hr vs. untreated) was “No” and the Kendall (gene #583 Egr2 NM_010118_at) was “Yes”. The Wilcoxon (gene #584 F2r NM_010169_at, DBP-4 hr vs. untreated) was “No”, the Kendall (gene #584 F2r NM_010169_at) was “Yes” and the “Wilcoxon: Abhd6” value (gene Abhd6, NM_025341_at, DBP-4 hr vs. untreated) was “No”. For the same compound, the “Kendall: Abhd6” value (gene Abhd6, NM_025341_at, gene expression vs. output) was “Yes”, the “Wilcoxon: Acad8” value (gene Acad8, NM_025862_at, DBP-4 hr vs. untreated) was “No” and the “Kendall: Acad8” value (gene Acad8, NM_025862_at, gene expression vs. output) was “Yes”. The “Wilcoxon: Ak2” value (gene Ak2, NM_016895_at, DBP-4 hr vs. untreated) was “No”, the “Kendall: Ak2” value (gene Ak2, NM_016895_at, gene expression vs. output) was “Yes” and the “Wilcoxon: Akr1e1” value (gene Akr1e1, NM_018859_at, DBP-4 hr vs. untreated) was “No”. For the same compound, the “Kendall: Akr1e1” value (gene Akr1e1, NM_018859_at, gene expression vs. output) was “Yes”, the “Wilcoxon: Avpr1a” value (gene Avpr1a, NM_016847_at, DBP-4 hr vs. untreated) was “No” and the “Kendall: Avpr1a” value (gene Avpr1a, NM_016847_at, gene expression vs. output) was “Yes”. For the same compound, the “Wilcoxon: B4galt1” value (gene B4galt1, NM_022305_at, DBP-4 hr vs. untreated) was “No”, the “Kendall: B4galt1” value (gene B4galt1, NM_022305_at, gene expression vs. output) was “Yes” and the “Wilcoxon: Bphl” value (gene Bphl, NM_026512_at, DBP-4 hr vs. untreated) was “No”. For the same compound, the “Kendall: Bphl” value (gene Bphl, NM_026512_at, gene expression vs. output) was “Yes”, the “Wilcoxon: Cdkl2” value (gene Cdkl2, NM_016912_at, DBP-4 hr vs. untreated) was “No” and the “Kendall: Cdkl2” value (gene Cdkl2, NM_016912_at, gene expression vs. output) was “Yes”. For the same compound, the “Wilcoxon: Cep70” value (gene Cep70, NM_023873_at, DBP-4 hr vs. untreated) was “No”, the “Kendall: Cep70” value (gene Cep70, NM_023873_at, gene expression vs. output) was “Yes” and the “Wilcoxon: Cirh1a” value (gene Cirh1a, NM_011574_at, DBP-4 hr vs. untreated) was “No”. For the same compound, the “Kendall: Cirh1a” value (gene Cirh1a, NM_011574_at, gene expression vs. output) was “Yes”, the “Wilcoxon: Clec14a” value (gene Clec14a, NM_025809_at, DBP-4 hr vs. untreated) was “No” and the “Kendall: Clec14a” value (gene Clec14a, NM_025809_at, gene expression vs. output) was “Yes”. The “Wilcoxon: Commd4” value (gene Commd4, NM_025417_at, DBP-4 hr vs. untreated) was “No”, the “Kendall: Commd4” value (gene Commd4, NM_025417_at, gene expression vs. output) was “Yes” and the “Wilcoxon: Cr1l” value (gene Cr1l, NM_013499_at, DBP-4 hr vs. untreated) was “No”. The “Kendall: Cr1l” value (gene Cr1l, NM_013499_at, gene expression vs. output) was “Yes”, the “Wilcoxon: Cyth1” value (gene Cyth1, NM_011180_at, DBP-4 hr vs. untreated) was “No” and the “Kendall: Cyth1” value (gene Cyth1, NM_011180_at, gene expression vs. output) was “Yes”. The “Wilcoxon: D16Ertd472e” value (gene D16Ertd472e, NM_025967_at, DBP-4 hr vs. untreated) was “No”, the “Kendall: D16Ertd472e” value (gene D16Ertd472e, NM_025967_at, gene expression vs. output) was “Yes” and the “Wilcoxon: Dcxr” value (gene Dcxr, NM_026428_at, DBP-4 hr vs. untreated) was “No”. The “Kendall: Dcxr” value (gene Dcxr, NM_026428_at, gene expression vs. output) was “Yes” and the “Wilcoxon: Dda1” value (gene Dda1, NM_025600_at, DBP-4 hr vs. untreated) was “No”.
